Patent US9253983B2, “Triazole compound and use thereof” (KUREHA CORPORATION, priority 2011, dated 2016)

Legend:
[1] = test system: Puccinia recondita; assay: Controlling effect on wheat brown rust (leaf rust) by foliage spray treatment (Tests 1 and 2); type: in vivo; conditions: foliage spray 0.8 mg/L, 1,000 L/ha, 11 days after inoculation
Description: The wheat plants had been grown in square plastic pots (6 cm×6 cm). The suspensions were left to dry, and inoculated with spores of Puccinia recondita (adjusted at 200 spores per field of vision, Gramin S was added at 60 ppm) by spraying, and kept at 25° C. in a high humidity environment for 48 hours. After that, the plants were kept in a greenhouse. 11 days after the inoculation, the lesion degree of the wheat leaf rust was examined in accordance with the criteria shown in Table 4, and the protective values were calculated by the following equation. Protective value (%)=(1−Average lesion degree in sprayed plot/Average lesion degree in unsprayed plot)×100
The wheat plants had been grown in square plastic pots (6 cm×6 cm). The leaves were air-dried, and inoculated with spores of Puccinia recondita (adjusted at 200 spores per field of vision, Gramin S was added at 60 ppm) by spraying, and kept at 25° C. in a high humidity environment for 48 hours. After that, the plants were kept in a greenhouse. 11 days after the inoculation, the lesion degree of the wheat leaf rust was examined, and the protective values were calculated as were in Experiment Example 2.

[2] = test system: Gaeumannomyces graminis; assay: Test 1 for antifungal effect, plate medium: G.g; type: cell-based; conditions: PDA plate medium
Description: (§1) Compound (1-1a) or Compound (1-2a) was dissolved in dimethyl sulfoxide, and the resulting solution was added to a PDA medium (potato dextrose-agar medium) at about 60° C. The medium and the solution were mixed thoroughly in a conical flask, poured into a petri dish, and allowed to solidify. In this way, a plate medium containing Compound (1-1a) or Compound (1-2a) at a certain concentration was prepared.
(§2) Meanwhile, test microorganisms cultured on a plate medium in advance were cut out with the use of a cork borer 4 mm in diameter, and were inoculated onto the compound-containing plate medium. After the inoculation, the microorganisms were cultured at their optimum growth temperatures (for example, refer to LIST OF CULTURES 1996 microorganisms 10th edition, Institute for Fermentation (foundation)) for 1 day to 7 days, and their growth was determined by measuring the diameter of their flora. The extent of growth of the microorganisms on the compound-containing plate medium was compared with that of microorganisms on a plate medium where no compound was added, and mycelial growth inhibition rate was calculated by the following equation: R=100(dc−dt)/dc where R is mycelial growth inhibition rate (%), dc is the flora diameter in untreated plate, and dt is the flora diameter in plate treated with the compound.
(§3) A larger antifungal index indicates a better antifungal effect.

[3] = test system: Rhizopus oryzae; assay: Test 1 for antifungal effect, plate medium: R.o; type: cell-based; conditions: PDA plate medium
Description: as §1, §2, §3

[4] = test system: Sclerotinia sclerotiorum; assay: Test 1 for antifungal effect, plate medium: S.s; type: cell-based; conditions: PDA plate medium
Description: as §1, §2, §3

[5] = test system: Microdochium nivale; assay: Test 1 for antifungal effect, plate medium: M.n; type: cell-based; conditions: PDA plate medium
Description: as §1, §2, §3

[6] = test system: Fusarium oxysporum; assay: Test 2 for antifungal effect, plate medium: F.c; type: cell-based; conditions: PDA plate medium
Description: Compound (1-1b) or Compound (1-2b) was dissolved in dimethyl sulfoxide, and the resulting solution was added to a PDA medium (potato dextrose-agar medium) at about 60° C. The medium and the solution were mixed thoroughly in a conical flask, poured into a petri dish, and allowed to solidify. In this way, a plate medium containing Compound (1-1b) or Compound (1-2b) at a certain concentration was prepared.
Meanwhile, test microorganisms cultured on a plate medium in advance were cut out with the use of a cork borer 4 mm in diameter, and were inoculated onto the compound-containing plate medium. After the inoculation, the pathogens were cultured at their optimum growth temperatures (for example, refer to LIST OF CULTURES 1996 microorganisms 10th edition, Institute for Fermentation (foundation)) for 1 day to 7 days, and their growth was determined by measuring the diameter of their flora. The extent of growth of the pathogens on the compound-containing plate medium was compared with that of pathogens on a plate medium where no compound was added, and mycelial growth inhibition rate was calculated as in Experiment Example 10. Note that, in Experiment Example 11, controls used in the antifungal effect tests are Compound (1-1a) and Compound (1-2a) instead of Compound (1-1b) and Compound (1-2b), respectively.
The results were rated on a 1-to-5 scale as in Experiment Example 10.

[7] = test system: wheat; assay: Necrosis (adverse effects) of seed treatment on wheat seeds; type: in vivo; conditions: 20 days after sowing
Description: A pot experiment was performed to evaluate necrosis (adverse effects) caused by the seed treatment. Compound (1-1a) and Compound (1-2a), each which was dissolved in DMSO to make up such a concentration that the seeds would be treated in treatment amount of 2 g to 200 g ai/100 kg seeds, were each applied to wheat seeds in a vial, and thereafter 8 wheat seeds were sowed in an 80-cm^2 pot. The pot was kept in a greenhouse with water supplied to its bottom. 20 days after the sowing, an extent of necrosis (percentage of necrotic surface area) of wheat was evaluated. A necrosis index was derived from the percentage of the necrotic surface area, based on the criteria shown by Table 13. In Table 13, a smaller necrosis index indicates a lesser adverse effect of necrosis caused by the treatment with the use of a plant disease controlling agent.

[8] = test system: Botrytis cinerea; assay: Controlling effect on cucumber gray mold by foliage spray treatment (Tests 1 and 2); type: in vivo; conditions: four days after inoculation
Description: The cucumber plants had been grown in square plastic pots (6 cm×6 cm). After the suspension was then left to dry, paper discs (8 mm in diameter) impregnated with a spore suspension of Botrytis cinerea w ere placed on the leaves, and the plants were kept at 20° C. in a high humidity environment. Four days after inoculation, the lesion degree of the cucumber gray mold was examined in accordance with the criteria shown in Table 1, and the protective values were calculated by the following equation: Protective value (%)=(1−Average lesion degree in sprayed plot/Average lesion degree in unsprayed plot)×100.
The cucumber plants had been grown in square plastic pots (6 cm×6 cm). After the leaves were air-dried, paper discs (8 mm in diameter) impregnated with a spore suspension of cucumber graymold-causing microorganisms were placed on the leaves, and the plants were kept at 20° C. in a high humidity environment. 4 days after the inoculation, the lesion degree of the cucumber gray mold was examined, and the protective values were calculated as were in Experiment Example 1.

[9] = treatment amount 2 g ai/100 kg seeds
[10] = treatment amount 20 g ai/100 kg seeds
[11] = treatment amount 200 g ai/100 kg seeds
[12] = foliage spray 3.1 mg/L, 1,000 L/ha
[13] = foliage spray 12.5 mg/L, 1,000 L/ha

**Q.** What does the source list for `CC1(CCl)CCC(Cc2ccc(F)cc2)C1(O)Cn1cncn1` (single isomer, unassigned) [Compound (1-2a), (1,2-cis, 1,5-cis)-5-(4-fluorobenzyl)-2-chloromethyl-2-methyl-1-(1H-1,2,4-triazole-1-ylmethyl)cyclopentanol]?
**A.** Protective value (%) [1]: 91%; Antifungal index (mycelial growth inhibition rate) ([2]; 0.16 mg/L): 1 (Less than 60%); Antifungal index (mycelial growth inhibition rate) ([2]; 0.31 mg/L): 4 (Less than 90% but not less than 80%); Antifungal index (mycelial growth inhibition rate) ([2]; 0.63 mg/L): 5 (90% or greater); Antifungal index (mycelial growth inhibition rate) ([2]; 1.25 mg/L): 5 (90% or greater); Antifungal index (mycelial growth inhibition rate) ([2]; 2.50 mg/L): 5 (90% or greater); Antifungal index (mycelial growth inhibition rate) ([3]; 0.16 mg/L): 1 (Less than 60%); Antifungal index (mycelial growth inhibition rate) ([3]; 0.31 mg/L): 1 (Less than 60%); Antifungal index (mycelial growth inhibition rate) ([3]; 0.63 mg/L): 3 (Less than 80% but not less than 70%); Antifungal index (mycelial growth inhibition rate) ([3]; 1.25 mg/L): 5 (90% or greater); Antifungal index (mycelial growth inhibition rate) ([3]; 2.50 mg/L): 5 (90% or greater); Antifungal index (mycelial growth inhibition rate) ([4]; 0.16 mg/L): 5 (90% or greater); Antifungal index (mycelial growth inhibition rate) ([4]; 0.31 mg/L): 5 (90% or greater); Antifungal index (mycelial growth inhibition rate) ([4]; 0.63 mg/L): 5 (90% or greater); Antifungal index (mycelial growth inhibition rate) ([4]; 1.25 mg/L): 5 (90% or greater); Antifungal index (mycelial growth inhibition rate) ([4]; 2.50 mg/L): 5 (90% or greater); Antifungal index (mycelial growth inhibition rate) ([5]; 0.16 mg/L): 1 (Less than 60%); Antifungal index (mycelial growth inhibition rate) ([5]; 0.31 mg/L): 1 (Less than 60%); Antifungal index (mycelial growth inhibition rate) ([5]; 0.63 mg/L): 2 (Less than 70% but not less than 60%); Antifungal index (mycelial growth inhibition rate) ([5]; 1.25 mg/L): 3 (Less than 80% but not less than 70%); Antifungal index (mycelial growth inhibition rate) ([5]; 2.50 mg/L): 5 (90% or greater); Antifungal index (mycelial growth inhibition rate) ([6]; 0.04 mg/L): 1 (Less than 60%); Antifungal index (mycelial growth inhibition rate) ([6]; 0.08 mg/L): 1 (Less than 60%); Antifungal index (mycelial growth inhibition rate) ([6]; 0.16 mg/L): 2 (Less than 70% but not less than 60%); Antifungal index (mycelial growth inhibition rate) ([6]; 0.31 mg/L): 3 (Less than 80% but not less than 70%); Antifungal index (mycelial growth inhibition rate) ([6]; 0.63 mg/L): 4 (Less than 90% but not less than 80%); Antifungal index (mycelial growth inhibition rate) ([6]; 1.25 mg/L): 5 (90% or greater); Necrosis index [7, 9]: 0 (Less than 1%); Necrosis index [7, 10]: 0 (Less than 1%); Necrosis index [7, 11]: 0 (Less than 1%); Protective value (%) [8, 12]: 40%; Protective value (%) [8, 13]: 100%

**Q.** With `CC1(CCl)CCC(Cc2ccc(F)cc2)C1(O)Cn1cncn1` (single isomer, unassigned) [Compound (1-2b), (1,2-cis, 1,5-cis)-5-(4-fluorobenzyl)-2-chloromethyl-2-methyl-1-(1H-1,2,4-triazole-1-ylmethyl)cyclopentanol] as the molecule, how does the “Protective value (%)” value [1] read?
**A.** 80%

**Q.** What about the “Antifungal index (mycelial growth inhibition rate)” value ([2]; 0.16 mg/L) of the same molecule?
**A.** 1 (Less than 60%)

**Q.** What about the “Antifungal index (mycelial growth inhibition rate)” value ([2]; 0.31 mg/L) of the same molecule?
**A.** 1 (Less than 60%)

**Q.** What about the “Antifungal index (mycelial growth inhibition rate)” value ([2]; 0.63 mg/L) of the same molecule?
**A.** 4 (Less than 90% but not less than 80%)

**Q.** What about the “Antifungal index (mycelial growth inhibition rate)” value ([2]; 1.25 mg/L) of the same molecule?
**A.** 5 (90% or greater)

**Q.** What about the “Antifungal index (mycelial growth inhibition rate)” value ([2]; 2.50 mg/L) of the same molecule?
**A.** 5 (90% or greater)

**Q.** And the “Antifungal index (mycelial growth inhibition rate)” value ([3]; 0.16 mg/L)?
**A.** 1 (Less than 60%)

**Q.** What about the “Antifungal index (mycelial growth inhibition rate)” value ([3]; 0.31 mg/L) of the same molecule?
**A.** 1 (Less than 60%)

**Q.** And the “Antifungal index (mycelial growth inhibition rate)” value ([3]; 0.63 mg/L)?
**A.** 1 (Less than 60%)

**Q.** What about the “Antifungal index (mycelial growth inhibition rate)” value ([3]; 1.25 mg/L) of the same molecule?
**A.** 1 (Less than 60%)

**Q.** And the “Antifungal index (mycelial growth inhibition rate)” value ([3]; 2.50 mg/L)?
**A.** 2 (Less than 70% but not less than 60%)

**Q.** What about the “Antifungal index (mycelial growth inhibition rate)” value ([4]; 0.16 mg/L) of the same molecule?
**A.** 3 (Less than 80% but not less than 70%)

**Q.** And the “Antifungal index (mycelial growth inhibition rate)” value ([4]; 0.31 mg/L)?
**A.** 5 (90% or greater)

**Q.** What about the “Antifungal index (mycelial growth inhibition rate)” value ([4]; 0.63 mg/L) of the same molecule?
**A.** 5 (90% or greater)

**Q.** And the “Antifungal index (mycelial growth inhibition rate)” value ([4]; 1.25 mg/L)?
**A.** 5 (90% or greater)

**Q.** And the “Antifungal index (mycelial growth inhibition rate)” value ([4]; 2.50 mg/L)?
**A.** 5 (90% or greater)

**Q.** And the “Antifungal index (mycelial growth inhibition rate)” value ([5]; 0.16 mg/L)?
**A.** 1 (Less than 60%)

**Q.** And the “Antifungal index (mycelial growth inhibition rate)” value ([5]; 0.31 mg/L)?
**A.** 1 (Less than 60%)

**Q.** What about the “Antifungal index (mycelial growth inhibition rate)” value ([5]; 0.63 mg/L) of the same molecule?
**A.** 1 (Less than 60%)

**Q.** And the “Antifungal index (mycelial growth inhibition rate)” value ([5]; 1.25 mg/L)?
**A.** 1 (Less than 60%)

**Q.** And the “Antifungal index (mycelial growth inhibition rate)” value ([5]; 2.50 mg/L)?
**A.** 2 (Less than 70% but not less than 60%)

**Q.** And the “Antifungal index (mycelial growth inhibition rate)” value ([6]; 0.04 mg/L)?
**A.** 1 (Less than 60%)

**Q.** And the “Antifungal index (mycelial growth inhibition rate)” value ([6]; 0.08 mg/L)?
**A.** 2 (Less than 70% but not less than 60%)

**Q.** And the “Antifungal index (mycelial growth inhibition rate)” value ([6]; 0.16 mg/L)?
**A.** 3 (Less than 80% but not less than 70%)

**Q.** And the “Antifungal index (mycelial growth inhibition rate)” value ([6]; 0.31 mg/L)?
**A.** 4 (Less than 90% but not less than 80%)

**Q.** And the “Antifungal index (mycelial growth inhibition rate)” value ([6]; 0.63 mg/L)?
**A.** 5 (90% or greater)

**Q.** And the “Antifungal index (mycelial growth inhibition rate)” value ([6]; 1.25 mg/L)?
**A.** 5 (90% or greater)

**Q.** What about the Necrosis index [7, 9] of the same molecule?
**A.** 0 (Less than 1%)

**Q.** What about the Necrosis index [7, 10] of the same molecule?
**A.** 3 (20% or more)

**Q.** And the Necrosis index [7, 11]?
**A.** 3 (20% or more)

**Q.** What about the “Protective value (%)” value [8, 12] of the same molecule?
**A.** 15%

**Q.** What about the “Protective value (%)” value [8, 13] of the same molecule?
**A.** 98%
